Results reported in patent publication US8198290B2, “Methoxatin derivatives” (Berry and Associates, Inc., priority 2009, dated 2012).
Values joined by “and” are separate entries in the source; they are usually repeats but may differ in a detail not shown here. Identical values can stand only once.

target: T1, soluble glucose dehydrogenase (GDH) (Acinetobacter calcoaceticus, UniProt P13650); assay: GDH assay: coenzyme activity relative to native methoxatin; assay type: biochemical; design: concentration or dose not given beside the values; conditions: coenzyme activity expressed as a percentage of the methoxatin sample
T1 sequence (P13650 25-478): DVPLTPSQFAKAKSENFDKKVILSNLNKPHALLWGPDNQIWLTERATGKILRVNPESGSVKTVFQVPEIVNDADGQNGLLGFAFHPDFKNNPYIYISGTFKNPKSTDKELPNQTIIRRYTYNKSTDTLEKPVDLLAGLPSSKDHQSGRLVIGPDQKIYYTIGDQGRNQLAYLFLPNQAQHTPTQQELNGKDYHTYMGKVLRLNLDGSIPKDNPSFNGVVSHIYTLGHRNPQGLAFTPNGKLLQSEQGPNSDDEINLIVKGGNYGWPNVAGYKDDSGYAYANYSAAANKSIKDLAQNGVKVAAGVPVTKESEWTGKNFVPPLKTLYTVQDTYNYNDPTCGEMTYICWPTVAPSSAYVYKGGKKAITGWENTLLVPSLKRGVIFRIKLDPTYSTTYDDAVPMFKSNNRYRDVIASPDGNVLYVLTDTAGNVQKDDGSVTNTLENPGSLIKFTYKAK
Procedure: The coenzyme activity of several compounds relative to native methoxatin was determined with a published assay that utilizes soluble glucose dehydrogenase (GDH) from Acinetobactercalcoaceticus. (Misset-Smits et al., Methods in Enzymol., 280, 89-98 (1997)).

SMILES | Relative Activity in GDH Assay
C=CCCCONC(=O)c1cc(C(=O)O)c2c(n1)C(=O)C(=O)c1cc(C(=O)O)[nH]c1-2 [Compound 5, 4,5-Dioxo-7-((pent-4-en-1-yloxy)carbamoyl)-4,5-dihydro-1H-pyrrolo[2,3-f]quinoline-2,9-dicarboxylic acid] | 40% and 45%
[N-]=[N+]=NCCOCCOCCOCCONC(=O)c1cc(C(=O)O)c2c(n1)C(=O)C(=O)c1cc(C(=O)O)[nH]c1-2 [Compound 7, 7-(((11-Azido-3,6,9-trioxaundecyl)oxy)carbamoyl)-4,5-dioxo-4,5-dihydro-1H-pyrrolo[2,3-f]quinoline-2,9-dicarboxylic acid] | 45% and 40%
O=C(/C=C/c1cn([C@H]2C[C@H](O)[C@@H](CO)O2)c(=O)[nH]c1=O)NCCCCCCNC(=O)c1ccc(C(=O)NCCOCCOCCOCCONC(=O)c2cc(C(=O)O)c3c(n2)C(=O)C(=O)c2cc(C(=O)O)[nH]c2-3)c(P(=O)(c2ccccc2)c2ccccc2)c1 [Compound 15, 7-(((1-(2-(diphenylphosphoryl)-4-((6-((E)-3-(1-((2R,4S,5R)-4-hydroxy-5-(hydroxymethyl)tetrahydrofuran-2-yl)-2,4-dioxo-1,2,3,4-tetrahydropyrimidin-5-yl)acrylamido)hexyl)carbamoyl)phenyl)-1-oxo-5,8,11-trioxa-2-azatridecan-13-yl)oxy)carbamoyl)-4,5-dioxo-4,5-dihydro-1H-pyrrolo[2,3-f]quinoline-2,9-dicarboxylic acid] | 6%
O=C(O)c1cc(C(=O)O)c2c(n1)C(=O)C(=O)c1cc(C(=O)O)[nH]c1-2 [Methoxatin] | 100%
